# Assay: recombinant UMI read abundance after kanamycin selection (control-corrected) (log10(CPM+1)); higher = more efficient recombination; extreme values may be limits of the assay; sequences stand for … in AGTGCAGAGAAAATCGGCCAGTTTTCTCTGCCTGCAGTCCGCATGCCGTGGGACCCCTTGGGTTCTAACCTGTTGCCTAGATTTATGCAGCGGACTGCCTTTCTCCCAAAGTGATAAACCGG…AGGTTGGTTTCACT; site = the 11-nt donor
# In short: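 Values are reported as log10(CPM+1), obtained by converting sequencing counts to CPM, averaging replicates and scaling by control-derived factors. The counts came from recombinant UMIs amplified by PCR across the donor–target junction. These UMIs came from a pooled Escherichia coli screen of donor and donor-binding-loop pairs for the IS621 bridge recombinase, plated with IPTG (0.07 mM) plus kanamycin or left unselected, in two replicates each.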
# 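Note: IS621 bridge recombinase in Escherichia coli cells against a fixed T5 target plasmid.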
row,Sequence,recombinant UMI read abundance (log10)
1,CCCTCAACATGGACCGGTTTTCCCGGTAATCCGTATTTGGG (site CCCTCAACTCC),0.0112
2,CCCTCCTCATGGACCGGTTTTCCCGGTAATCCGTATTTGAG (site CCCTCCTCTCT),0.256
3,CCCTCCTCATGGACCGGTTTTCCCGGTAATCCGTATTTGGG (site CCCTACTCTCC),0.0129
4,CCCTCCTCATGGACCGGTTTTCCCGGTAATCCGTATTTGGG (site CCCTCCTCTCC),0.487
5,CCCTCCTCATGGACCGGTTTTCCCGGTAATCCGTATTTGGG (site CCCTGCTCTCC),0
6,CCCTCCTCATGGACCGGTTTTCCCGGTAATCCGTATTTGGG (site CCCTTCTCTCC),0.00367
7,CCCTGATCATGGACCGGTTTTCCCGGTAATCCGTATTTGAG (site CCCTGATCTCT),0.248
8,CCCTTATCATGGACCGGTTTTCCCGGTAATCCGTATTTGGG (site CCCTTATCTCC),0.162
9,CCCTTATCATGGACCGGTTTTCCCGGTAATCCGTATTTGGG (site CCCTTCTCTCC),0.0199
10,CCCTTATCATGGACCGGTTTTCCCGGTAATCCGTATTTGGG (site CCCTTGTCTCC),0.0199
11,CCCTTATCATGGACCGGTTTTCCCGGTAATCCGTATTTGGG (site CCCTTTTCTCC),0
12,CCCTTCTCATGGACCGGTTTTCCCGGTAATCCGTATTTGGT (site CCCTTCTCTAC),1.32
13,CCCTTCTCATGGACCGGTTTTCCCGGTAATCCGTATTTGGT (site CCCTTCTCTCC),0.182
14,CCCTTCTCATGGACCGGTTTTCCCGGTAATCCGTATTTGGT (site CCCTTCTCTGC),0
15,CCCTTCTCATGGACCGGTTTTCCCGGTAATCCGTATTTGGT (site CCCTTCTCTTC),0.121
16,CCCTTGGCATGGACCGGTTTTCCCGGTAATCCGTATTTGGA (site CACTTGGCTTC),0.0394
17,CCCTTGGCATGGACCGGTTTTCCCGGTAATCCGTATTTGGA (site CCCTTGGCTTC),0.107
18,CCCTTGGCATGGACCGGTTTTCCCGGTAATCCGTATTTGGA (site CGCTTGGCTTC),0.0127
19,CCCTTGGCATGGACCGGTTTTCCCGGTAATCCGTATTTGGA (site CTCTTGGCTTC),0.00833
20,CCGAAAACATGGACCGGTTTTCCCGGTAATCCGTATTTGCT (site ACGAAAACTAG),0
21,CCGAAAACATGGACCGGTTTTCCCGGTAATCCGTATTTGCT (site CCGAAAACTAG),0.973
22,CCGAAAACATGGACCGGTTTTCCCGGTAATCCGTATTTGCT (site GCGAAAACTAG),0
23,CCGAAAACATGGACCGGTTTTCCCGGTAATCCGTATTTGCT (site TCGAAAACTAG),0
24,CCGAAACCATGGACCGGTTTTCCCGGTAATCCGTATTTGCG (site CCGAAACCTCG),0
25,CCGAATCCATGGACCGGTTTTCCCGGTAATCCGTATTTGTT (site CAGAATCCTAA),0

row,Sequence,recombinant UMI read abundance (log10)
1,CCGAATCCATGGACCGGTTTTCCCGGTAATCCGTATTTGTT (site CCGAATCCTAA),0.251
2,CCGAATCCATGGACCGGTTTTCCCGGTAATCCGTATTTGTT (site CGGAATCCTAA),0
3,CCGAATCCATGGACCGGTTTTCCCGGTAATCCGTATTTGTT (site CTGAATCCTAA),0.00536
4,CCGACCGCATGGACCGGTTTTCCCGGTAATCCGTATTTGTA (site CCGACCGCTTA),0.904
5,CCGAGTCCATGGACCGGTTTTCCCGGTAATCCGTATTTGAA (site CCGAGTCCTTT),0.417
6,CCGATTACATGGACCGGTTTTCCCGGTAATCCGTATTTGCT (site CCGATTACTAG),0.743
7,CCGATTACATGGACCGGTTTTCCCGGTAATCCGTATTTGCT (site CCGCTTACTAG),0
8,CCGATTACATGGACCGGTTTTCCCGGTAATCCGTATTTGCT (site CCGGTTACTAG),0
9,CCGATTACATGGACCGGTTTTCCCGGTAATCCGTATTTGCT (site CCGTTTACTAG),0
10,CCGCCACCATGGACCGGTTTTCCCGGTAATCCGTATTTGAT (site CCGCCACCTAT),0.00762
11,CCGCCGACATGGACCGGTTTTCCCGGTAATCCGTATTTGTT (site CCGCCGACTAA),0.275
12,CCGCTACCATGGACCGGTTTTCCCGGTAATCCGTATTTGCT (site CAGCTACCTAG),0
13,CCGCTACCATGGACCGGTTTTCCCGGTAATCCGTATTTGCT (site CCGCTACCTAG),0
14,CCGCTACCATGGACCGGTTTTCCCGGTAATCCGTATTTGCT (site CGGCTACCTAG),0
15,CCGCTACCATGGACCGGTTTTCCCGGTAATCCGTATTTGCT (site CTGCTACCTAG),0.00224
16,CCGCTAGCATGGACCGGTTTTCCCGGTAATCCGTATTTGTG (site CCGATAGCTCA),0.0148
17,CCGCTAGCATGGACCGGTTTTCCCGGTAATCCGTATTTGTG (site CCGCTAGCTCA),0.337
18,CCGCTAGCATGGACCGGTTTTCCCGGTAATCCGTATTTGTG (site CCGGTAGCTCA),0.0182
19,CCGCTAGCATGGACCGGTTTTCCCGGTAATCCGTATTTGTG (site CCGTTAGCTCA),0
20,CCGCTTACATGGACCGGTTTTCCCGGTAATCCGTATTTGCT (site CCGATTACTAG),0
21,CCGCTTACATGGACCGGTTTTCCCGGTAATCCGTATTTGCT (site CCGCTTACTAG),1.48
22,CCGCTTACATGGACCGGTTTTCCCGGTAATCCGTATTTGCT (site CCGGTTACTAG),0
23,CCGCTTACATGGACCGGTTTTCCCGGTAATCCGTATTTGCT (site CCGTTTACTAG),0
24,CCGCTTCCATGGACCGGTTTTCCCGGTAATCCGTATTTGTC (site CCGCTTCCTGA),0
25,CCGCTTTCATGGACCGGTTTTCCCGGTAATCCGTATTTGAG (site CCGCTTTCTCT),0.19

row,Sequence,recombinant UMI read abundance (log10)
1,CCGGAAACATGGACCGGTTTTCCCGGTAATCCGTATTTGTT (site CCGGAAACTAA),1.15
2,CCGGATCCATGGACCGGTTTTCCCGGTAATCCGTATTTGTT (site CCGGATCCTAA),0.556
3,CCGGATCCATGGACCGGTTTTCCCGGTAATCCGTATTTGTT (site CGGAATCCTAA),0.00344
4,CCGGCTACATGGACCGGTTTTCCCGGTAATCCGTATTTGAT (site CCGGCTACTAT),1.37
5,CCGGGGCCATGGACCGGTTTTCCCGGTAATCCGTATTTGAT (site CCGGGGCCTAT),0.04
6,CCGGGTGCATGGACCGGTTTTCCCGGTAATCCGTATTTGAT (site CCAGGTGCTAT),1.63
7,CCGGGTGCATGGACCGGTTTTCCCGGTAATCCGTATTTGAT (site CCCGGTGCTAT),0.797
8,CCGGGTGCATGGACCGGTTTTCCCGGTAATCCGTATTTGAT (site CCGGGTGCTAT),1.25
9,CCGGGTGCATGGACCGGTTTTCCCGGTAATCCGTATTTGAT (site CCTGGTGCTAT),0.428
10,CCGGGTTCATGGACCGGTTTTCCCGGTAATCCGTATTTGGC (site CCGGGTTCTGC),1.57
11,CCGTCAACATGGACCGGTTTTCCCGGTAATCCGTATTTGCT (site CCGTCAACTAG),0
12,CCGTCGCCATGGACCGGTTTTCCCGGTAATCCGTATTTGTC (site CCGTCGCCTGA),0
13,CCGTTACCATGGACCGGTTTTCCCGGTAATCCGTATTTGAG (site CCGTTACCTCT),0.0156
14,CCGTTAGCATGGACCGGTTTTCCCGGTAATCCGTATTTGAG (site CCGTTAGCTCA),0.0714
15,CCGTTAGCATGGACCGGTTTTCCCGGTAATCCGTATTTGAG (site CCGTTAGCTCC),0.006
16,CCGTTAGCATGGACCGGTTTTCCCGGTAATCCGTATTTGAG (site CCGTTAGCTCG),0.00749
17,CCGTTAGCATGGACCGGTTTTCCCGGTAATCCGTATTTGAG (site CCGTTAGCTCT),0.692
18,CCGTTCGCATGGACCGGTTTTCCCGGTAATCCGTATTTGTG (site CCGTTAGCTCA),0.00765
19,CCGTTCGCATGGACCGGTTTTCCCGGTAATCCGTATTTGTG (site CCGTTCGCTCA),0.0261
20,CCGTTCGCATGGACCGGTTTTCCCGGTAATCCGTATTTGTG (site CCGTTGGCTCA),0.0144
21,CCGTTCGCATGGACCGGTTTTCCCGGTAATCCGTATTTGTG (site CCGTTTGCTCA),0.00651
22,CCGTTGGCATGGACCGGTTTTCCCGGTAATCCGTATTTGTG (site CCGTTAGCTCA),0.661
23,CCGTTGGCATGGACCGGTTTTCCCGGTAATCCGTATTTGTG (site CCGTTCGCTCA),0.0171
24,CCGTTGGCATGGACCGGTTTTCCCGGTAATCCGTATTTGTG (site CCGTTGGCTCA),0.286
25,CCGTTGGCATGGACCGGTTTTCCCGGTAATCCGTATTTGTG (site CCGTTTGCTCA),0.00375
